Measured values taken from PMC5694528, “Human mass balance study and metabolite profiling of ^14C-niraparib, a novel poly(ADP-Ribose) polymerase (PARP)-1 and PARP-2 inhibitor, in patients with advanced cancer” (Investigational New Drugs, 2017).
Like-named read-outs stand apart in the source and are kept apart here.

Columns and labels:
[1] = Metabolite profiling in plasma, urine and faeces by LC-LSC-MSn; assay type: in vivo, human; conditions: for Amount excreted in urine (0–144 h) / Amount excreted total, urine and faeces (0–144 h) / Amount excreted in faeces (0–144 h): % of administered dose; for Plasma exposure: relative AUC0-168h (% of AUC0-168h from total 14C): 0-168 h
Experimental: Metabolite profiling was divided into two parts: metabolite screening and identification, and metabolite quantification. During the first part, inter-patient pooled samples were analysed to screen for the presence of metabolites. Afterwards, individual patient samples or within-patient pooled samples (depending on the matrix) were analysed and metabolites found during the screening phase were quantified. Plasma, urine and faeces samples were selected both for screening and quantification. Three time points were selected for screening of plasma samples. Besides the pre-dose, a sample around the tmax was chosen, because these samples contained the highest amount of radioactivity. It was also of interest to select a sample in which the amount of radioactivity was much higher than the amount of parent compound, because this is indicative of the presence of metabolites. Consequently, 4 h and 48 h were selected and screened for metabolites. Individual patient samples from 0 […] and 168 h were analysed and metabolites in these samples were quantified. All urine samples were pooled within patients, and afterwards these samples were pooled between patients. […] The same procedure was applied for faeces samples. Again, 24 h-interval pools were made, first within patients and then between patients. The latter were used for metabolite screening, whereas the first were analysed afterwards, during the quantification step. […] Plasma samples (pre-dose, 4 h and 48 h) were pooled by equal volumes. In addition, the individual samples (pre-dose, 4 h, 12 h, 24 h, 48 h, 72 h and 168 h) were analysed. Plasma samples were extracted once with acetonitrile-methanol (50:50, v/v). […] An aliquot of the clear supernatant was analysed for total radioactivity to determine extraction efficiency. The remaining supernatant was used for analysis by LC-MS^n in combination with off-line LSC (LC-LSC-MS^n). Urine samples were first pooled within patients. […] These samples were analysed without pre-treatment. […] Faeces homogenate samples were extracted once with 0.1% formic acid in acetonitrile. […] An aliquot of the clear supernatant was analysed for total radioactivity to determine extraction recovery. The remaining supernatant was used for LC-LSC-MS^n analysis. Samples were analysed by LC (Shimadzu, Kyoto, Japan) coupled to a linear ion trap mass spectrometer (Thermo Electron, Waltham, MA, USA) in combination with off-line LSC (LC-Linear Ion Trap LTQ XL Mass Spectrometry (MS)-LSC). To separate known and unknown metabolites, an HPLC gradient was applied. A flow rate of 1 mL/min was maintained during the following 50-min gradient: starting at 10%B and increasing to 36.25%B over 35 min, then to 90%B in 12 min. This was held for 2 min and then it was reverted back to the initial conditions of 10%B at 49 min. Mobile phase A consisted of 20 mM ammonium acetate in water and mobile phase B consisted of 0.1% formic acid in acetonitrile. Structural information on niraparib metabolites was obtained using Data Dependent Acquisition. Accurate mass measurements were performed to confirm the chemical structures of the metabolites. These measurements were performed on an Ultimate 3000 LC (Dionex) coupled to an LTQ Orbitrap XL MS (Thermo Electron, Waltham). The same gradient composition was applied. […] The metabolite profiles of ^14C-niraparib-derived radioactivity were determined for selected aliquots of extracts of plasma, urine and faecal homogenates using LC-MS/MS, fractionation and off-line LSC. After pre-treatment, samples were injected onto a Phenomenex Synergi Hydro-RP (250 × 4.6 mm, 4 μm) column. Data Dependent Acquisition was applied, causing the detection and fragmentation of the most abundant ions. Besides this, a parent list with possible metabolites was constructed, meaning that apart from the most abundant ions, also the ones with the masses in this parent list were further fragmentised for which MS^2 and MS^3 spectra were obtained. […]

[2] = Plasma pharmacokinetics of niraparib and M1 by validated LC-MS/MS after a single oral 300 mg dose of 14C-niraparib; assay type: in vivo; conditions: human; for AUC(0-inf): read-out: AUC0-inf (mean); for AUC(0-t): read-out: AUC0-last (mean); for half-life: read-out: t1/2 (mean) (converted); for Tmax: read-out: tmax (median)
Experimental: Dose reductions were allowed twice. […] All patients provided written informed consent. Blood sampling was done at the following time points: pre-dose, 1, 1.5, 2, 3, 4, 6, 9 and 12 hours (h) after administration and in the morning of Day 2, 3, 4, 5, 8, 11, 15 and 22. For each time point, a 10 mL K2EDTA blood collection tube was used (Vacutainer®, Becton, Dickinson and Company, Franklin Lakes, NJ, USA) and blood was drawn via a peripheral line. […] Separate aliquots were made for radioactivity measurements as well as LC-MS/MS and metabolite profiling experiments. All samples were stored at −80 °C. […] Gradient elution was applied using 20 mM ammonium acetate in water (mobile phase A) and 0.1% formic acid in acetonitrile-methanol (50:50, v/v; mobile phase B). […] Quality control samples were prepared and analysed together with the study samples. […] Analysis was done by a non-compartmental method using WinNonlin Phoenix Version 6.2.1 or higher (Pharsight Corporation, St. Louis, Missouri, USA).

[3] = Safety assessment (NCI CTCAE) in the mass balance study
Excerpt: The National Cancer Institute Common Terminology Criteria for Adverse Events (NCI CTCAE) grading system was used to describe the severity of the adverse events (AEs) that occurred. Haematology, blood chemistry and vital signs were also part of the safety assessment.

[4] = Experimental: Six evaluable patients were enrolled in this open-label mass balance clinical study (ClinicalTrials.gov identifier NCT02476552) and were admitted to the study center for at least 10 days, with the 11th day being optional. […] From the moment of administration, all urine and faeces were collected. […] Dose reductions were allowed twice. The study was conducted in conformance with the International Conference on Harmonisation (ICH) guidelines for Good Clinical Practice (GCP) and in accordance with the Declaration of Helsinki. The protocol was approved by the Netherlands Cancer Institute Independent Ethics Committee. All patients provided written informed consent.
For the purpose of the mass balance study and metabolite profiling, urine and faecal samples were collected. Urine was collected at pre-determined intervals: pre-dose, 0–12 h, 12–24 h, 24–36 h and 36–48 h after administration. From Day 3 onwards, urine was collected over periods of 24 h. Urine was stored in polyethylene containers at 2–8 °C for the duration of the collection period. After each collection period, urine samples were mixed thoroughly, weighed, portioned into aliquots, and then frozen at ≤ − 70 °C. Separate aliquots were made in polypropylene tubes for analysis by LC-MS/MS, metabolite profiling and TRA analysis by LSC.
Faeces were collected and weighted per stool. Sample pre-treatment involved diluting and homogenising the faeces by adding water (1:3 w/v; B. Braun). A T25 basic Ultra Turrax (IKA Works, Staufen, Germany) was used to homogenise the samples before aliquoting. Urine and faeces sample collection occurred according to the following requirements: • If the total radioactivity in the Day 14 faecal/urine sample is detected to be higher than 0.1% and the total recovery of accumulative radioactivity ≤85% (faeces and urine) of the radioactivity of the dose given, faecal/urine samples will be collected every 24 h through Day 21. • If the total radioactivity in the Day 21 faecal/urine sample is detected to be higher than 0.1% and the total recovery of accumulative radioactivity ≤85% (faeces and urine), faecal/urine samples will continue to be collected every 24 h. • Faecal/urine sample collection will stop after Day 21, if the recovered radioactivity is below 1% (per 24 h) for the two consecutive days prior to Day 21 (Day 19 and Day 20). If this is not the case, collection will stop as soon as the recovered radioactivity is below 1% (per 24 h) for two consecutive days after Day 21.
TRA analysis was performed on a Liquid Scintillation Counter Tri-Carp 2910 (PerkinElmer, Groningen, The Netherlands). Aliquots of 200 μL of whole blood, plasma and faeces (all in duplicate), and 1 mL of urine (in singular) were transferred to scintillation vials. Whole blood and faecal samples needed to be moderately translucent and colourless. Therefore, 2-propanol (1 mL) was added to faecal samples to dissolve fibres, NaEDTA (0.1 mL) was added to whole blood to reduce foaming, and Solvable™ (1 mL) was added to both matrices to solubilise tissue. Hydrogen peroxide 30% (0.4 mL to faeces and 0.5 mL to whole blood) was added to reduce colour intensity. These samples were placed in a water bath (at least 40 °C; GF1086, Salm en Kipp, Breukelen, The Netherlands) to stimulate the chemical processes. Finally, 10 mL of Ultima Gold™ Cocktail (PerkinElmer) was added and the samples were analysed, either for 60 min or until the 2-sigma error was less than or equal to 5%, whichever came first. A scintillant blank was used to provide as a background sample.

[5] = population pharmacokinetic analysis, all the patients in NOVA study; cited from earlier work
[6] = system: recurrent, platinum sensitive, ovarian, fallopian tube, or primary peritoneal cancer; conditions: adult patients in complete or partial response to platinum-based chemotherapy; cited from earlier work
[7] = daily dose of 300 mg; cited from earlier work
[8] = plasma, single oral dose 300 mg 14C-niraparib, n = 6
[9] = % of administered dose, up to 144 h
[10] = % of administered radioactive dose, through 504 h post-dose

## O=C(O)c1cccc2cn(-c3ccc([C@@H]4CCCNC4)cc3)nc12 [Compound M1, Amide hydrolysed niraparib]
[1]
  Amount excreted in urine (0–144 h): 20.0%
  Amount excreted total, urine and faeces (0–144 h): 22.4%
[1]; listed as M1 (4)
  Amount excreted in faeces (0–144 h): 2.4%
  Amount excreted in urine (0–144 h): 20%
  Plasma exposure: relative AUC0-168h (% of AUC0-168h from total 14C): 9.3%
[2]; [8]
  Cmax: 476 ng/mL
  AUC(0-inf): 41200 ng·h/mL
  AUC(0-t): 40800 ng·h/mL
  half-life: 78.4 h
  Tmax: 9.02 h

## COC(=O)c1cccc2cn(-c3ccc([C@@H]4CCCNC4)cc3)nc12 [Methylated M1 (7), Methylated M1]
[1]
  Amount excreted in urine (0–144 h): not detected
  Plasma exposure: relative AUC0-168h (% of AUC0-168h from total 14C): 2.5%

## NC(=O)c1cccc2cn(-c3ccc([C@@H]4CCCNC4)cc3)nc12 [niraparib, 2-{4-[(3S)-piperidin-3-yl]phenyl}-2H-indazole-7-carboxamide]
[3]; NCI CTCAE
  Grade of AEs considered likely to be related to study treatment: ≤ 2 grade
[3]; six patients
  TEAEs leading to study drug discontinuation or death: no TEAEs led to study drug discontinuation or death
[3]; six patients, single oral dose 300 mg
  Total number of adverse events reported: 21
[4]; [9]
  Total radioactivity recovered in excreta (urine and faeces): 71.6%
  Total radioactivity recovered in faeces: 31.6%
  Total radioactivity recovered in urine: 40%
[4]; [10]
  Mean total radioactivity recovered in excreta (urine and faeces): 86.3%
  Mean total radioactivity recovered in faeces: 38.8%
  Mean total radioactivity recovered in urine: 47.5%
[4]; within the first 4 days (96 h) after dosing
  Administered dose recovered in excreta: over 50%
[5]
  apparent Vd/F: 1074 L
[1]; listed as Niraparib (5)
  Amount excreted in faeces (0–144 h): 18.7%
  Amount excreted in urine (0–144 h): 10.5%
  Amount excreted total, urine and faeces (0–144 h): 29.2%
[1]; listed as niraparib (5)
  Amount excreted in faeces (0–144 h): 18.7%
  Amount excreted in urine (0–144 h): 10.5%
[6]
  progression-free survival (PFS): met its primary endpoint of improving progression-free survival
[7]
  tolerability: well tolerated
[2]; in vivo, oral, cancer patients, across the clinical studies, read-out: apparent Vd/F, collective conclusion
  Vd/F: ≥ 1000 L
[2]; [8]
  Cmax: 540 ng/mL
  AUC(0-inf): 18500 ng·h/mL
  AUC(0-t): 18400 ng·h/mL
  half-life: 87.4 h
  Tmax: 2.49 h
[2]; plasma, single oral dose 300 mg 14C-niraparib, n = 6, read-out: Vd/F (mean)
  Vd/F: 2170 L

## M1-glucuronide [Compound M10]
[1]
  Amount excreted in urine (0–144 h): 6.2%
  Plasma exposure: relative AUC0-168h (% of AUC0-168h from total 14C): 55.7%

## M1-glucuronide [M10 (1)]
[1]
  Amount excreted in urine (0–144 h): <LLOQ
  Plasma exposure: relative AUC0-168h (% of AUC0-168h from total 14C): 6.0%

## M1-glucuronide [M10 (2)]
[1]
  Amount excreted in urine (0–144 h): 6.2%
  Amount excreted total, urine and faeces (0–144 h): 6.2%
  Plasma exposure: relative AUC0-168h (% of AUC0-168h from total 14C): 26.8%

## M1-glucuronide [M10 (3)]
[1]
  Amount excreted in urine (0–144 h): <LLOQ
  Plasma exposure: relative AUC0-168h (% of AUC0-168h from total 14C): 22.9%
